Activity calls are given as the source filed them. The calls are words filed in the database; no cut-off is given here.
How the values were obtained:
[1] = system: U-87 MG; assay: Induction of ROS production in human U87MG cells at 500 nM after 1 hr by MitoSOX Red mitochondrial superoxide indicator based FACS analysis relative to antimycin A; format: functional, U-87MG ATCC
[2] = target: T1, Neuronal acetylcholine receptor subunit alpha-7 (Homo sapiens, UniProt P36544); assay: Displacement of [125I]-alpha-bungarotoxin from human alpha7 nAChR expressed in human SH-SY5Y cell membranes after 30 mins by gamma counting analysis
T1 sequence (P36544 whole entry): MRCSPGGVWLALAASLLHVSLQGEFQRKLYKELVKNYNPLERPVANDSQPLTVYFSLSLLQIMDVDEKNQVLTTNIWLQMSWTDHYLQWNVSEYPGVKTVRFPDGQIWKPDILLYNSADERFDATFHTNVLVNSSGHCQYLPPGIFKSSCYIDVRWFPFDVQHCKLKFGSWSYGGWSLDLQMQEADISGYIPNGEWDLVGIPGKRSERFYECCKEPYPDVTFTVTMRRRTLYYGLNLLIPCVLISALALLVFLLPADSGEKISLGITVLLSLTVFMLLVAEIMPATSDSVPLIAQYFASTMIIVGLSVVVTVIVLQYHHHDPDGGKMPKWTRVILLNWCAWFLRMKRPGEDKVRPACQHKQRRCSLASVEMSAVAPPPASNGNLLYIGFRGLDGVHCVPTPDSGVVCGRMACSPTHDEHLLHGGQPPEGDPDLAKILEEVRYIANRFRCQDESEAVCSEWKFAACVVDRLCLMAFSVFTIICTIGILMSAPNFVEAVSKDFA

[3] = system: U-87 MG; assay: cells; details: Homo sapiens, 72 h
Description: Antiproliferative activity against human U87MG cells after 72 hrs by MTS assay

[4] = system: A549; assay: cells; details: Homo sapiens, A549, 72 h
Description: Antiproliferative activity against human A549 cells after 72 hrs by MTS assay

[5] = system: U-87 MG; assay: Induction of ROS production in human U87MG cells after 1 hr by MitoSOX Red mitochondrial superoxide indicator based FACS analysis; format: functional, cell-based; details: U-87MG ATCC
[6] = target: Neuronal acetylcholine receptor; alpha9/alpha10 (Homo sapiens, UniProt Q9GZZ6+Q9UGM1); assay: Antagonist activity at human alpha9alpha10 nACHR expressed in xenopous laevis oocyte assessed as inhibition of ACh-induced channel current after 5 mins at -70 mV holding potential by two electrode voltage clamp method
Sequence of Neuronal acetylcholine receptor; alpha9/alpha10 (Q9UGM1 whole entry): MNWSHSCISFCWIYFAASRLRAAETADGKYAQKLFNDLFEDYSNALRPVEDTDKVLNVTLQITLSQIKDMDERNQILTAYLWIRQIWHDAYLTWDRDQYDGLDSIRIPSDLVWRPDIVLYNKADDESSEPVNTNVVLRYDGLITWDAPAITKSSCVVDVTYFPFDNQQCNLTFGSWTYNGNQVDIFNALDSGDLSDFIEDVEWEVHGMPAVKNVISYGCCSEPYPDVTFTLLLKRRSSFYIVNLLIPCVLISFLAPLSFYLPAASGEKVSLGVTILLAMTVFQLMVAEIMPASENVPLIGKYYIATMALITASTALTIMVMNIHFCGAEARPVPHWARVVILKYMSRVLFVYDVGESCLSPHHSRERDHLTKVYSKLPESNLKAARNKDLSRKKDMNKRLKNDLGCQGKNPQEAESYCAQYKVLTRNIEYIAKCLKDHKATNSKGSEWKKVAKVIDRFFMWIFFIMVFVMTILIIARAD
Sequence of Neuronal acetylcholine receptor; alpha9/alpha10 (Q9GZZ6 whole entry): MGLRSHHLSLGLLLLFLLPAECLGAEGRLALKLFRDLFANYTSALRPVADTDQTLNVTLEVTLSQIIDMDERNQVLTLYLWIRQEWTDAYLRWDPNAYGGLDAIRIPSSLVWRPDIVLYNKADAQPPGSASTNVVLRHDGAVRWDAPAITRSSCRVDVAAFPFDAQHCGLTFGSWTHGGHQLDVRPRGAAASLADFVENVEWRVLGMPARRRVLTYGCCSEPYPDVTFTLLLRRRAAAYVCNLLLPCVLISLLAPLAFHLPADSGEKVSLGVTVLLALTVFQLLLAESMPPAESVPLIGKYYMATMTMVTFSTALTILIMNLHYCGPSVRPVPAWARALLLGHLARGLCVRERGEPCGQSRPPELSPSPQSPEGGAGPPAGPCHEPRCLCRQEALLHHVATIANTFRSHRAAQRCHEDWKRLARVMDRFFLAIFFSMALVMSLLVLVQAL

[7] = system: SH-SY5Y; assay: Antiproliferative activity against human SH-SY5Y cells after 72 hrs by MTS assay
[8] = system: Astrocyte; assay: Cytotoxicity against mouse astrocytes assessed as reduction in cell viability after 72 hrs by MTS assay
[9] = system: U-87 MG; assay: Cytotoxicity against human U87MG cells assessed as decrease in ATP production at 4 uM after 72 hrs by luciferin-luciferase-based luminescent assay; format: functional, cell-based; details: U-87MG ATCC
[10] = system: U-87 MG; assay: Reduction in mitochondrial membrane potential in human U87MG cells after 72 hrs by TMRM-staining based assay; format: functional, cell-based; details: U-87MG ATCC
[11] = system: U-87 MG; assay: Reduction in mitochondrial membrane potential in human U87MG cells after 72 hr by TMRM-staining based assay; details: U-87MG ATCC
[12] = target: T1, Neuronal acetylcholine receptor subunit alpha-7; assay: Antagonist activity at human alpha7 nACHR expressed in xenopous laevis oocyte assessed as inhibition of ACh-induced channel current after 5 mins at -70 mV holding potential by two electrode voltage clamp method
[13] = Drug uptake in human HepG2 cells assessed as relative fluorescence unit at 1 uM after 1 hr to 24 hrs by fluorescent plate reader based assay; format: ADME, cell-based; details: hepg2, 1 µM
[14] = Drug uptake in human HepG2 cells assessed as relative fluorescence unit at 10 uM after 6 hrs by fluorescent plate reader based assay; format: ADME, cell-based; details: hepg2, 6 h
[15] = Drug uptake in human HepG2 cells assessed as relative fluorescence unit at 100 uM after 6 hrs by fluorescent plate reader based assay; format: ADME, cell-based; details: hepg2, 6 h
[16] = Drug uptake in human HepG2 cells assessed as relative fluorescence unit at 50 uM after 6 hrs by fluorescent plate reader based assay; format: ADME, cell-based; details: hepg2, 6 h
[17] = Drug uptake in human HepG2 cells assessed as relative fluorescence unit at 1 uM after 6 hrs by fluorescent plate reader based assay; format: ADME, cell-based; details: hepg2, 6 h
[18] = Drug uptake in human HepG2 cells by fluorescent plate reader based assay; format: ADME, cell-based
[19] = Drug uptake in human HepG2 cells assessed as relative fluorescence unit at 1 uM after 24 hrs by fluorescent plate reader based assay; format: ADME, cell-based; details: hepg2, 24 h
[20] = Drug uptake in human HepG2 cells assessed as relative fluorescence unit at 10 uM after 24 hrs by fluorescent plate reader based assay; format: ADME, cell-based; details: hepg2, 24 h
[21] = Drug uptake in human HepG2 cells assessed as relative fluorescence unit at 50 uM after 24 hrs by fluorescent plate reader based assay; format: ADME, cell-based; details: hepg2, 24 h
[22] = Drug uptake in human HepG2 cells assessed as relative fluorescence unit at 100 uM after 24 hrs by fluorescent plate reader based assay; format: ADME, cell-based; details: hepg2, 24 h
[23] = Drug metabolism in human HepG2 cells assessed as loss of styrene moiety at 100 uM incubated for 24 hrs by MS/MS analysis; format: ADME, cell-based; details: hepg2, 24 h
[24] = system: U-87 MG; assay: Cytotoxicity against human U87MG cells assessed as decrease in ATP production at 2 uM after 1 hr by luciferin-luciferase-based luminescent assay; format: functional, cell-based; details: U-87MG ATCC
[25] = system: U-87 MG; assay: Cytotoxicity against human U87MG cells assessed as decrease in ATP production at 2 uM after 72 hrs by luciferin-luciferase-based luminescent assay; format: functional, cell-based; details: U-87MG ATCC
[26] = system: U-87 MG; assay: Cytotoxicity against human U87MG cells assessed as decrease in ATP production at 0.1 uM after 1 hr by luciferin-luciferase-based luminescent assay; format: functional, cell-based; details: U-87MG ATCC
[27] = system: U-87 MG; assay: Cytotoxicity against human U87MG cells assessed as decrease in ATP production at 0.1 uM after 72 hrs by luciferin-luciferase-based luminescent assay; format: functional, cell-based; details: U-87MG ATCC
[28] = system: U-87 MG; assay: Cytotoxicity against human U87MG cells assessed as decrease in ATP production at 1 uM after 1 hr by luciferin-luciferase-based luminescent assay; format: functional, cell-based; details: U-87MG ATCC
[29] = system: U-87 MG; assay: Cytotoxicity against human U87MG cells assessed as decrease in ATP production at 1 uM after 72 hrs by luciferin-luciferase-based luminescent assay; format: functional, cell-based; details: U-87MG ATCC

| SMILES | Activity [1] [%] | Ki [2] [nM] | IC50 [3] [nM] | IC50 [4] [nM] | Activity [10] | Activity [11] | IC50 [12] [nM] | other results |
| --- | --- | --- | --- | --- | --- | --- | --- | --- |
| C(=C\c1ccc(OCCC[P+](c2ccccc2)(c2ccccc2)c2ccccc2)cc1)/c1ccccc1.[I-] | 21 | 984 | 1400 | 1800 |  |  |  |  |
| CC[N+](CC)(CC)CCOc1ccc(/C=C/c2cc(OC)cc(OC)c2)cc1 |  |  | 5300 | 12000 | Active | Active |  | Activity [5]: inactive; IC50 [6]: 17.2 nM; IC50 [7]: > 100000 nM; IC50 [8]: 23000 nM; Activity [9]: Active |
| CC[N+](CC)(CC)CCCCCCCCOc1ccc(/C=C/c2ccccc2)cc1.[I-] |  | 164 |  |  |  |  | 92 | Drug uptake [13]: Active |
| CC[N+](CC)(CC)CCOc1ccc(/C=C/c2ccccc2)cc1.[I-] [STILONIUM IODIDE] |  |  |  |  | Active | Active |  | Drug uptake [14]: 6.82 RFU; Drug uptake [15]: 9.43 RFU; Drug uptake [16]: 7.67 RFU; Drug uptake [17]: 4.75 RFU; Drug uptake [18]: Dose-dependent effect and Tde; Activity [9]: Active; Drug uptake [19]: 5.42 RFU; Drug uptake [20]: 7.18 RFU; Drug uptake [21]: 9.13 RFU; Drug uptake [22]: 14.35 RFU; Drug metabolism [23]: Metabolite_Detected |
| C(=C\c1ccc(OCCCC[P+](c2ccccc2)(c2ccccc2)c2ccccc2)cc1)/c1ccccc1.[I-] | 1.5 | 1640 | 640 | 420 | Active | Active |  | Activity [5]: Dose-dependent effect; IC50 [7]: 3000 nM; IC50 [8]: 400 nM; Activity [24]: Active; Activity [25]: Active |
| CC[N+](CC)(CC)CCCCCCOc1ccc(/C=C/c2ccccc2)cc1 |  | 465 |  |  |  |  | 12.3 |  |
| C(=C\c1ccc(OCCCCCCCCCC[P+](c2ccccc2)(c2ccccc2)c2ccccc2)cc1)/c1ccccc1.[I-] | 58.2 | 1930 | 60 | 100 | Active | Active |  | Activity [5]: Dose-dependent effect; IC50 [7]: 210 nM; IC50 [8]: 600 nM; Activity [26]: Active; Activity [27]: Active |
| CC[N+](CC)(CC)CCCCOc1ccc(/C=C/c2cc(OC)cc(OC)c2)cc1 |  | 305 |  |  |  |  | 24.3 |  |
| C(=C\c1ccc(OCCCCCCC[P+](c2ccccc2)(c2ccccc2)c2ccccc2)cc1)/c1ccccc1.[I-] | 39.5 | 617 | 360 | 120 |  |  |  |  |
| C(=C\c1ccc(OCCCCCCCCC[P+](c2ccccc2)(c2ccccc2)c2ccccc2)cc1)/c1ccccc1.[I-] | 56.3 | 1290 | 90 | 110 |  |  |  |  |
| COc1cc(/C=C/c2ccc(OCCCC[P+](c3ccccc3)(c3ccccc3)c3ccccc3)cc2)cc(OC)c1.[I-] | 16.3 | 1830 | 860 | 260 | Active | Active | > 10000 | Activity [5]: Dose-dependent effect; IC50 [6]: > 10000 nM; IC50 [7]: 550 nM; IC50 [8]: 1000 nM; Activity [28]: Active; Activity [29]: Active |
| C(=C\c1ccc(OCCCCC[P+](c2ccccc2)(c2ccccc2)c2ccccc2)cc1)/c1ccccc1.[I-] | 20 | 2800 | 670 | 320 |  |  |  |  |
| C(=C\c1ccc(OCCCCCCCC[P+](c2ccccc2)(c2ccccc2)c2ccccc2)cc1)/c1ccccc1.[I-] | 46.3 | 909 | 70 | 260 |  |  |  | Drug uptake [13]: Active |
| C(=C\c1ccc(OCCCCCC[P+](c2ccccc2)(c2ccccc2)c2ccccc2)cc1)/c1ccccc1.[I-] | 27.3 | 559 | 380 | 150 |  |  |  |  |
| CC[N+](CC)(CC)CCCCOc1ccc(/C=C/c2ccccc2)cc1.[I-] |  | 186 |  |  |  |  | 6.5 | Drug uptake [13]: Active |

Reference: ChEMBL document CHEMBL4261640, “Potent Antiglioblastoma Agents by Hybridizing the Onium-Alkyloxy-Stilbene Based Structures of an α7-nAChR, α9-nAChR Antagonist and of a Pro-Oxidant Mitocan” (J Med Chem, 2018)
